One compound from patent publication US11040031B2, “Pyrazole derivatives as MALT1 inhibitors” (Janssen Pharmaceutica NV, priority 2018, dated 2021) can be followed below.

Assay [1] concerns the target T1, full-length MALT1 protein (Strep-MALT1(1-824)-His) (Homo sapiens, UniProt Q9UDY8).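 Further: fluorogenic LRSR-AMC substrate cleavage by MALT1, 50 min compound preincubation then 4 h reaction at RT, 11-point dilution from 30 µM, scaled between enzyme-free and untreated enzyme controls.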
T1 sequence (Q9UDY8 1-824): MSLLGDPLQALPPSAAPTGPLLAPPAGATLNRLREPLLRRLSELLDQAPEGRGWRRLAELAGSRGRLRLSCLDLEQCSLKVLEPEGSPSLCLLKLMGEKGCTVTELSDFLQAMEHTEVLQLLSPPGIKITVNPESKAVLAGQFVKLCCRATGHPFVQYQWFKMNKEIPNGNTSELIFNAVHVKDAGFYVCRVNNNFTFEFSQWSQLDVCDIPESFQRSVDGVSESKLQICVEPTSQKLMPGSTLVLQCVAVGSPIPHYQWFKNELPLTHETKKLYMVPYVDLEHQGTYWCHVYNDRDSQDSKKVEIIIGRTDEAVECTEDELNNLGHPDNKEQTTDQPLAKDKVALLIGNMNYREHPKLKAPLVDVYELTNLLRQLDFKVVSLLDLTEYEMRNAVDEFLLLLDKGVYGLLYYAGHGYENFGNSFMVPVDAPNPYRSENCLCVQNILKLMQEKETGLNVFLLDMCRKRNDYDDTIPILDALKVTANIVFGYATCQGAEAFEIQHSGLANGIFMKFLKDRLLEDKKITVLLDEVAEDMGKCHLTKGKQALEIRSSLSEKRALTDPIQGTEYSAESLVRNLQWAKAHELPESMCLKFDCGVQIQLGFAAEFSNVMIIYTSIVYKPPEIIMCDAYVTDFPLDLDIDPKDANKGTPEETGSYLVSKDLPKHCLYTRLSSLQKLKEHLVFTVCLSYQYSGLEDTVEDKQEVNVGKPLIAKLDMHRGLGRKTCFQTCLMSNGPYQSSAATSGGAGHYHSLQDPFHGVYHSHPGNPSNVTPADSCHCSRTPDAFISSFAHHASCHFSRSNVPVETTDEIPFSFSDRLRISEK
Put plainly: biochemical.

In assay [2] the test system is Secretion of IL6 by TMD8 ABC-DLBCL cells. Nature of the assay: Human IL6 Mesoscale assay (TMD-8). It is filed as cell-based. The settings on record: TMD8 cells, 24 h incubation, supernatant, MSD V-Plex, read-out: Human IL6 Mesoscale assay (TMD-8). Here is the method: NFKB signaling regulates the secretion of multiple cytokines, including IL6 and IL10. Secretion of the cytokines IL6 and IL10 by TMD8 or OCI-LY3 ABC-DLBCL cells was measured using a mesoscale assay.
Cell passage number should not exceed 30. Cells should be kept between 0.5-2.5 million cells per mL during culturing and cells should be supplemented every 2-3 days with fresh 50 µM beta-mercaptoenthanol. No beta-mercaptoethanol was used during the mesoscale assay.
DMSO control wells were used to determine the maximum signal (High Control (HC)). […] Compounds and cells were incubated for 24 h at 37° C. and 5% CO2 (assay volume is 150 μL). After 24 h of incubation 50 μL of the supernatant was transferred to a MSD plate (V-Plex Proinflammation Panel 1 (human) kit, Mesoscale (MSD)) and incubated for 2 h with vigorous shaking (600 rpm) at room temperature. Following incubation, plates were washed 3× with PBS+0.05% Tween-20 and 25 μL detection antibody solution (IL6 & IL10 antibodies in diluent 3 (MSD)) was added per well followed by 2 h of incubation with vigorous shaking (600 rpm) at room temperature. After 3× washes with PBS+0.05% Tween-20, plates were incubated with 150 μL 2× Read Buffer T and read on SECTOR imager.

The test system of assay [3] is Secretion of IL10 by OCI-LY3 ABC-DLBCL cells. Put plainly: Human IL10 Mesoscale assay (OCI-LY3). The format is cell-based. The settings on record: OCI-LY3 cells, 24 h incubation, supernatant, MSD V-Plex, read-out: Human IL10 Mesoscale assay (OCI-LY3). Summed up: (§1)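 TMD8 or OCI-LY3 ABC-DLBCL cells incubated with compound 24 h at 37° C without beta-mercaptoethanol. Secreted IL6 and IL10 in supernatant quantified by MSD electrochemiluminescence immunoassay; DMSO wells define maximum signal.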

For assay [4], the system named is Secretion of IL10 by TMD8 ABC-DLBCL cells. Nature of the assay: Human IL10 Mesoscale assay (TMD-8). It is filed as cell-based. The settings on record: TMD8 cells, 24 h incubation, supernatant, MSD V-Plex, read-out: Human IL10 Mesoscale assay (TMD-8). Summed up:
as §1

Assay [5] deals with Secretion of IL6 by OCI-LY3 ABC-DLBCL cells. Nature of the assay: Human IL6 Mesoscale assay (OCI-LY3). The format is cell-based. As to conditions: OCI-LY3 cells, 24 h incubation, supernatant, MSD V-Plex, read-out: Human IL6 Mesoscale assay (OCI-LY3). Summed up:
as §1

The test system of assay [6] is OCI-Ly3 ABC-DLBCL cell line. Put plainly: 4-day proliferation assay OCI-Ly3. The settings on record: Homo sapiens, 96 h; 10,000 OCI-Ly3 cells per well, 4 days, CellTiterGLO; read-out: Anti-proliferation: OCI-LY-3 IC50. It is filed as cell-based. An outline of the steps: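 10,000 OCI-Ly3 cells per well cultured 4 days at 37° C., 5% CO2 without beta-mercaptoethanol, at densities giving linear growth. Viability read by CellTiterGLO luminescence after 10 min at room temperature.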

The structures appear in SMILES notation.

Take `N#Cc1cc(NC(=O)c2cnn(-c3ccnc4c3OCO4)c2C(F)(F)F)cnc1-n1nccn1` [Cpd 53, 1-([1,3]dioxolo[4,5-b]pyridin-7-yl)-N-(5-cyano-6-(2H-1,2,3-triazol-2-yl)pyridin-3-yl)-5-(trifluoromethyl)-1H-pyrazole-4-carboxamide]: the IC50 stood at 74 nM in assay [1]; 89 nM in assay [2]; 145 nM in assay [3]; 209 nM in assay [4]; 166 nM in assay [5]; 1860 nM in assay [6].
